System: 349418-098-R tumor spheroid viability
Assay: Anticancer human tumor 349418-098-R patient-derived lung adenocarcinoma cell line growth inhibition
Details: spheroids with HUVEC and MSC; for IC50: curve of first compound; for viability, T/C: stronger effect = lower value
Method in brief: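 Complex tumor spheroids combined malignant cells with endothelial cells and mesenchymal stem cells. DNA-damaging drugs and DNA repair inhibitors were tested alone and in combination, at half-log dilutions down from clinical Cmax (top 10 microM if Cmax unknown), 0.25% DMSO final.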

[1] = second compound 30 pM, first compound 0.0316 µM
[2] = second compound 30 pM, first compound 0.1 µM
[3] = second compound 30 pM, first compound 0.316 µM
[4] = second compound 30 pM, first compound 1 µM
[5] = second compound 30 pM, first compound 3.16 µM
[6] = second compound 30 pM, first compound 10 µM
[7] = second compound 94.9 pM, first compound 0.0316 µM
[8] = second compound 94.9 pM, first compound 0.1 µM
[9] = second compound 94.9 pM, first compound 0.316 µM
[10] = second compound 94.9 pM, first compound 1 µM
[11] = second compound 94.9 pM, first compound 3.16 µM
[12] = second compound 94.9 pM, first compound 10 µM
[13] = second compound 0.0003 µM, first compound 0.0316 µM
[14] = second compound 0.0003 µM, first compound 0.1 µM
[15] = second compound 0.0003 µM, first compound 0.316 µM
[16] = second compound 0.0003 µM, first compound 1 µM
[17] = second compound 0.0003 µM, first compound 3.16 µM
[18] = second compound 0.0003 µM, first compound 10 µM
[19] = second compound 0.000949 µM, first compound 0.0316 µM
[20] = second compound 0.000949 µM, first compound 0.1 µM
[21] = second compound 0.000949 µM, first compound 0.316 µM
[22] = second compound 0.000949 µM, first compound 1 µM
[23] = second compound 0.000949 µM, first compound 3.16 µM
[24] = second compound 0.000949 µM, first compound 10 µM
[25] = second compound 0.003 µM, first compound 0.0316 µM
[26] = second compound 0.003 µM, first compound 0.1 µM
[27] = second compound 0.003 µM, first compound 0.316 µM
[28] = second compound 0.003 µM, first compound 1 µM
[29] = second compound 0.003 µM, first compound 3.16 µM
[30] = second compound 0.003 µM, first compound 10 µM
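Also: spheroids exposed to compound for 7 days before measurement.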
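For viability, T/C in this document: percent of vehicle control viability with 100% = DMSO-treated spheroids.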

SMILES	IC50 (second compound 30 pM)	IC50 (second compound 94.9 pM)	IC50 (second compound 0.0003 µM)	IC50 (second compound 0.000949 µM)	IC50 (second compound 0.003 µM)	viability, T/C [1]	viability, T/C [2]	viability, T/C [3]	viability, T/C [4]	viability, T/C [5]	viability, T/C [6]	viability, T/C [7]	viability, T/C [8]	viability, T/C [9]	viability, T/C [10]	viability, T/C [11]	viability, T/C [12]	viability, T/C [13]	viability, T/C [14]	viability, T/C [15]	other results
[2H]c1nc(C)nc([2H])c1-c1cc(NC[C@@H](C)c2cccc3c(C(=O)NC)ccnc23)ncn1 + COc1cc2c(cc1O)CCNC21CSC2c3c(OC(C)=O)c(C)c4c(c3C(COC1=O)N1C(O)C3Cc5cc(C)c(OC)c(O)c5C(C21)N3C)OCO4	> 10 µM	> 10 µM	> 10 µM	< 0.0316 µM	< 0.0316 µM	110%	98.4%	111%	107%	98.2%	105%	99%	99.5%	94.2%	107%	103%	98.7%	96.1%	93.7%	92.7%	viability, T/C [16]: 93.6%; viability, T/C [17]: 88%; viability, T/C [18]: 86.2%; viability, T/C [19]: 0.58%; viability, T/C [20]: 0.76%; viability, T/C [21]: 0.46%; viability, T/C [22]: 0.58%; viability, T/C [23]: 0.39%; viability, T/C [24]: 0.49%; viability, T/C [25]: 1.52%; viability, T/C [26]: 1.57%; viability, T/C [27]: 1.35%; viability, T/C [28]: 1.29%; viability, T/C [29]: 1.6%; viability, T/C [30]: 2.34%
COc1cc(C)[nH]c(=O)c1CN1CCc2c(Cl)cc(C(OC)C3COC3)c(Cl)c2C1=O (stereo not given) + COc1cc2c(cc1O)CCNC21CSC2c3c(OC(C)=O)c(C)c4c(c3C(COC1=O)N1C(O)C3Cc5cc(C)c(OC)c(O)c5C(C21)N3C)OCO4	> 10 µM	> 10 µM	> 10 µM	< 0.0316 µM	< 0.0316 µM	112%	106%	96.1%	97.2%	94.2%	93.3%	112%	111%	102%	99.2%	90.8%	95.8%	95.4%	85.8%	84.3%	viability, T/C [16]: 79.9%; viability, T/C [17]: 64%; viability, T/C [18]: 53.1%; viability, T/C [19]: 0.28%; viability, T/C [20]: 0.39%; viability, T/C [21]: 0.45%; viability, T/C [22]: 0.46%; viability, T/C [23]: 0.29%; viability, T/C [24]: 0.33%; viability, T/C [25]: 1.45%; viability, T/C [26]: 1.46%; viability, T/C [27]: 1.03%; viability, T/C [28]: 1.48%; viability, T/C [29]: 1.6%; viability, T/C [30]: 2.3%

Source: PubChem BioAssay AID1845197 (Molecular Pharmacology Branch, DTP, NCI, 2023)
